Legend:
Leishmania braziliensis = assay: Antileishmanial activity against Leishmania braziliensis MCAN/BR/98/R619 promastigotes; format: functional; settings: read-out: ED50 (the source's name)
Leishmania chagasi = assay: Antileishmanial activity against Leishmania chagasi MCAN/BR/97/P142 promastigotes; format: functional; settings: read-out: ED50 (the source's name)
[1] = Cytotoxicity against BALB/c mouse peritoneal macrophages assessed as cell viability after 24 hrs by MTT assay; format: cell-based, Peritoneal macrophage cell; settings: read-out: TD50

| Structure (SMILES) | EC50 (Leishmania braziliensis) [µM] | EC50 (Leishmania chagasi) [µM] | CC50 at 24 h [1] [µM] |
| --- | --- | --- | --- |
| O=[N+]([O-])c1ccc(/C=C/c2sc(Nc3ccccc3)n[n+]2-c2ccccc2)cc1 | 70.8 | 22.8 | 5.49 |
| N#Cc1ccc(/C=C/c2sc(Nc3ccccc3)n[n+]2-c2ccccc2)cc1 | 28.1 | 16 | 441 |
| Brc1cccc(/C=C/c2sc(Nc3ccccc3)n[n+]2-c2ccccc2)c1 | 25.9 | 145 | 2.47 |
| N=C(N)c1ccc(OCCCCCOc2ccc(C(=N)N)cc2)cc1 [PENTAMIDINE] | 64.2 | 27.5 | 2.21 |
| COc1cccc(/C=C/c2sc(Nc3ccccc3)n[n+]2-c2ccccc2)c1 | 30.6 | 4.75 | 0.61 |
| Clc1cccc(/C=C/c2sc(Nc3ccccc3)n[n+]2-c2ccccc2)c1 | 1.72 | 5.17 | 6.23 |
| Fc1ccc(/C=C/c2sc(Nc3ccccc3)n[n+]2-c2ccccc2)cc1 | 5.1 | 3.42 | 5.82 |
| C(=C\c1sc(Nc2ccccc2)n[n+]1-c1ccccc1)/c1ccccc1 | 49.6 | 22.8 | 3.06 |
| COc1ccc(/C=C/c2sc(Nc3ccccc3)n[n+]2-c2ccccc2)cc1 | 46.2 | 8.31 | 1.13 |
| Clc1ccc(/C=C/c2sc(Nc3ccccc3)n[n+]2-c2ccccc2)cc1 | 6.23 | 13.2 | 12 |
| Brc1ccc(/C=C/c2sc(Nc3ccccc3)n[n+]2-c2ccccc2)cc1 | 2.93 | 9.97 | 6.59 |
| O=[N+]([O-])c1cccc(/C=C/c2sc(Nc3ccccc3)n[n+]2-c2ccccc2)c1 | 221 | 23.6 | 5.54 |
| Cc1ccc(/C=C/c2sc(Nc3ccccc3)n[n+]2-c2ccccc2)cc1 | 20.7 | 31.1 | 4.94 |
| Oc1ccc(/C=C/c2sc(Nc3ccccc3)n[n+]2-c2ccccc2)cc1 | 376 | 415 | 32 |
| CCOc1ccc(/C=C/c2sc(Nc3ccccc3)n[n+]2-c2ccccc2)cc1 | 13 | 33.3 | 9.73 |

From ChEMBL document CHEMBL1147906, “A comparative study of mesoionic compounds in Leishmania sp. and toxicity evaluation” (Eur J Med Chem, 2007)
